# Data: patent EP1675855B1, “4-AMINO-QUINOLINE OUINOLIZIDINYL-AND QUINOLIZIDINYLALKYL-DERIVATIVES WITH ANTIMALARIAL ACTIVITY” (Need Pharmaceuticals S.r.l., priority 2003, dated 2005)
# Assays:
# [1] = test system: chloroquine-sensitive P. falciparum strains; test: microbe, parasite or virus in culture; conditions: Plasmodium falciparum
# Experimental: (§1) The compounds of the invention were tested in vitro on chloroquine-sensitive and chloroquine-resistant strains of P. falciparum. […] Parasites' growth was evaluated with a colorimetric assay for pLDH at 72 hours.
# [2] = test system: chloroquine-resistant P. falciparum strains; test: microbe, parasite or virus in culture; conditions: Plasmodium falciparum
# Experimental: as §1
smiles,measurement,setting,value
"CCN(CC)CCCC(C)Nc1ccnc2cc(Cl)ccc12 (centres unmarked) [chloroquine, 7-chloro-4-(4-diethylamino-1-methylbutylamino)quinoline]",IC50,[1],0.0278 ± 0.009 µM
same,IC50,[2],0.15 to 0.3 µM
